In patent US20210332014A1, “CABOZANTINIB MALATE CRYSTAL FORM, PREPARATION METHOD AND USE THEREOF” (Crystal Pharmaceutical (Suzhou) Co., Ltd., priority 2018, published 2021):

Key:
Type in all cases: physicochemical
[1] = Kinetic solubility study (saturated solutions, HPLC); settings: for Solubility in H2O / Solubility in FaSSIF / Solubility in FeSSIF: 20 mg in 1.5 mL
Experimental: The HPLC method parameters for solubility test in the present disclosure are as follows: • 1. Column: Waters XBridge C18 150×4.6mm, 5 μm • 2. Mobile Phase: A: 0.1% TFA in H2O • B: 0.1% TFA in Acetonitrile • Gradient:
• 3. Flow rate: 1 mL/min • 4. Injection Volume: 5 μL • 5. Detection wavelength: 250 nm • 6. Column Temperature: 40° C. • 7. Diluent: Acetonitrile/H2O (9:1, v/v)
• Simulated gastrointestinal fluids such as FaSSIF (Fasted state simulated intestinal fluids) and FeSSIF (Fed state simulated intestinal fluids) are biorelevant media. […] After equilibrated for 1 h and 4 h, concentrations (mg/mL) of the saturated solutions were measured by HPLC.
• 20 mg of Form CSIII and 20 mg of crystalline forms in the prior arts were suspended into 1.5 mL of SGF, 1.5 mL of FaSSIF, 1.5 mL of FeSSIF and 1.5 mL of water to get saturated solutions. After equilibrated for 1 h and 4 h, concentrations (mg/mL) of the saturated solutions were measured by HPLC.

[2] = Compressibility (tensile strength of manually compressed tablet); settings: for Average tensile strength: 80 mg, φ6 mm round tooling, 10 KN, average of three tests
Experimental: • Manual tablet press was used for compression. 80 mg of Form CSIII and crystalline forms in the prior art were weighed and added into the dies of a φ6 mm round tooling, respectively, compressed at 10 KN manually, then stored at room temperature for 24 h until complete elastic recovery. Hardness (H) was tested with an intelligent tablet hardness tester. Diameter (D) and thickness (L) were tested with caliper. Tensile strength of the powder was calculated with the following formula: T=2H/πDL.

[3] = Adhesiveness (material sticking to the punch); settings: for Average amount sticking to the punch / Maximum amount sticking to the punch: 30 mg, φ8 mm round tooling, 10 KN held 30 s
Experimental: • 30 mg of Form CSIII and crystalline forms in the prior art were weighed separately and then added into the dies of φ8 mm round tooling, compressed at 10 KN and held for 30 s. The punch was weighed and amount of material sticking to the punch was calculated. The compression was repeated twice and the cumulative amount, maximum amount and average amount of material sticking to the punch during the compression were recorded.

[4] = Flowability (compressibility index / Carr index); settings: for Compressibility index: c=(ρf−ρ0)/ρf
Experimental: Compressibility index test method is as follows: a certain amount of powder was added into a measuring cylinder and bulk volume was recorded. Then the powder was tapped to make it in the tightest state and the tapped volume was recorded. The bulk density (ρ0), tapped density (ρf) were calculated and compressibility index was calculated according to c=(ρf−ρ0)/ρf. • Criteria of flowability according to United States Pharmacopoeia USP1174, which is shown in Table 7.

[5] = Particle size distribution (laser particle size analyzer); settings: wet mode, Isopar G
Experimental: The particle size distribution data in the present disclosure were acquired by an [MUT] laser particle size analyzer of Microtrac. Microtrac [MUT] is equipped with an SDC (Sample Delivery Controller). The test is carried out in wet mode, and the dispersion medium is Isopar G. The parameters are as follows:

[6] = Dynamic Vapor Sorption (DVS); settings: humidity lower than 30% RH, 25° C.
Experimental: Dynamic Vapor Sorption (DVS) is measured via an SMS (Surface Measurement Systems Ltd.) intrinsic DVS instrument. […] Typical Parameters for DVS test are as follows: • Temperature: 25° C. • Gas and flow rate: N2, 200 mL/min • dm/dt=0.002 • RH range: 0% RH to 95% RH

Row | SMILES | Solubility compared with prior art [1] | Solubility in H2O ([1]; water, equilibrated 1 h) [µg/mL] | Solubility in H2O ([1]; water, equilibrated 4 h) [µg/mL] | Average tensile strength [2] [MPa] | Average amount sticking to the punch [3] [mg] | Maximum amount sticking to the punch [3] [mg] | Bulk density [4] [g/mL] | Tapped density [4] [g/mL] | Compressibility index [4] [%] | Solubility in FaSSIF ([1]; equilibrated 1 h) [µg/mL] | Solubility in FaSSIF ([1]; equilibrated 4 h) [µg/mL] | Solubility in FeSSIF ([1]; equilibrated 1 h) [µg/mL] | Solubility in FeSSIF ([1]; equilibrated 4 h) [µg/mL] | further results
1 | COc1cc2nccc(Oc3ccc(NC(=O)C4(C(=O)Nc5ccc(F)cc5)CC4)cc3)c2cc1OC.O=C(O)C[C@H](O)C(=O)O [Form CSI, N-(4-(6,7-dimethoxyquinolin-4-yloxy)phenyl)-N′-(4-fluorophenyl) cyclopropane-1,1-dicarboxamide (S)-malate] | higher than that of prior art | 350 | 360 |  |  |  |  |  |  |  |  |  |  | Solubility in water relative to Form M4 ([1]; water): over five times more; Solubility in water relative to Form N-2 ([1]; water): twice
2 | COc1cc2nccc(Oc3ccc(NC(=O)C4(C(=O)Nc5ccc(F)cc5)CC4)cc3)c2cc1OC.O=C(O)C[C@H](O)C(=O)O [Form CSIII, N-(4-(6,7-dimethoxyquinolin-4-yloxy)phenyl)-N′-(4-fluorophenyl) cyclopropane-1,1-dicarboxamide (S)-malate] | higher than that of prior art | 300 | 240 | 1.56 | 0.045 | 0.06 | 0.319 | 0.376 | 15 | 25 | 8.3 | 130 | 120 | Compressibility compared with prior art [2]: better compressibility; Adhesiveness compared with prior art form [3]: superior to the prior art form; Maximum amount sticking to the punch of the prior art relative to Form CSIII [3]: over twice; Flowability compared with prior art [4]: remarkably superior to that of prior art; Solubility relative to Form N-2 and Form M4 ([1]; FeSSIF and water): twice
3 | COc1cc2nccc(Oc3ccc(NC(=O)C4(C(=O)Nc5ccc(F)cc5)CC4)cc3)c2cc1OC.O=C(O)C[C@H](O)C(=O)O [Form M2, N-(4-(6,7-dimethoxyquinolin-4-yloxy)phenyl)-N′-(4-fluorophenyl) cyclopropane-1,1-dicarboxamide (S)-malate] |  |  |  |  |  |  |  |  |  |  |  |  |  | D90 particle size [5]: 244.3 μm; Behaviour under humidity (DVS) [6]: dehydrated rapidly
4 | COc1cc2nccc(Oc3ccc(NC(=O)C4(C(=O)Nc5ccc(F)cc5)CC4)cc3)c2cc1OC.O=C(O)C[C@H](O)C(=O)O [Form M4, N-(4-(6,7-dimethoxyquinolin-4-yloxy)phenyl)-N′-(4-fluorophenyl) cyclopropane-1,1-dicarboxamide (S)-malate] |  | 72 | 2.8 | 1.23 | 0.08 | 0.11 | 0.251 | 0.387 | 35 | 12 | 1.9 | 62 | 65 | 
5 | COc1cc2nccc(Oc3ccc(NC(=O)C4(C(=O)Nc5ccc(F)cc5)CC4)cc3)c2cc1OC.O=C(O)C[C@H](O)C(=O)O [Form N-2, N-(4-(6,7-dimethoxyquinolin-4-yloxy)phenyl)-N′-(4-fluorophenyl) cyclopropane-1,1-dicarboxamide (S)-malate] |  | 150 | 150 | 1.02 | 0.20 | 0.26 | 0.194 | 0.256 | 24 | 11 | 7.9 | 47 | 43 | 
